According to patent US9314030B2, “Particulate wood preservative and method for producing same” (Koppers Performance Chemicals Inc., priority 2004, dated 2016):
Like-named read-outs stand apart in the source and are kept apart here.

Legend:
[1] = treated wood; cited from earlier work
[2] = Wet milling of chlorothalonil with 0.5-0.6 mm cerium-doped zirconium oxide beads, particle size; assay type: physicochemical
Procedure: The laboratory-sized vertical mill was provided by CB Mills, model# L-3-J. The mill has a 2 liter capacity and is jacketed for cooling. Unless otherwise specified, ambient water was cycled through the mill cooling jacket during operation. The internal dimensions are 3.9″ diameter by 9.1″ height. The mill uses a standard 3×3″ disk agitator (mild steel) on a stainless steel shaft, and it operates at 2,620 rpm.
The media used in this Example was 0.4-0.5 mm zirconium silicate beads supplied by CB Mills. All particle size determinations were made with a Sedigraph™ 5100T manufactured by Micromeritics, which uses x-ray detection and bases calculations of size on Stokes' Law.
The same mill and conditions were used in this experiment as in experiment 1. However, the grinding media was 0.5-0.6 mm cerium-doped zirconium oxide beads obtained from CB Mills. The density of the cerium doped zirconium oxide is ˜6.0 g/cm^3. […] The total batch weight was about 600 g.

[3] = 0.5-0.6 mm cerium-doped zirconium oxide, milling time 0 min
[4] = 0.5-0.6 mm cerium-doped zirconium oxide, milling time 90 min
[5] = 0.5-0.6 mm cerium-doped zirconium oxide, milling time 240 min
[6] = 0.5 mm zirconia milling media, in 90 minutes
[7] = 0.5 mm zirconia milling media, in 6 hours
[8] = 0.4-0.5 mm zirconium silicate, milling time 0 min
[9] = 0.4-0.5 mm zirconium silicate, milling time 30 min
[10] = 0.4-0.5 mm zirconium silicate, milling time 60 min
[11] = 0.4-0.5 mm zirconium silicate, milling time 90 min
[12] = 0.4-0.5 mm zirconium silicate, milling time 120 min
[13] = 0.4-0.5 mm zirconium silicate, milling time 150 min
[14] = 0.4-0.5 mm zirconium silicate, milling time 180 min
[15] = 0.4-0.5 mm zirconium silicate, milling time 270 min
[16] = 0.4-0.5 mm zirconium silicate, milling time 450 min

copper citrate
copper in leachate relative to CCA baseline [1]: over fifteen times the baseline concentration

N#Cc1c(Cl)c(Cl)c(Cl)c(C#N)c1Cl [chlorothalonil]
Particle Size Data-Volume % With Diamter Greater Than 1 μm [2, 3]: 92 Volume % | Particle Size Data-Volume % With Diamter Greater Than 2 μm [2, 3]: 77 Volume % | Particle Size Data-Volume % With Diamter Greater Than 5 μm [2, 3]: 30 Volume % | Particle Size Data-Volume % With Diamter Greater Than 10 μm [2, 3]: 8 Volume % | Particle Size Data-Volume % With Diamter Greater Than 0.4 μm [2, 4]: 22 Volume % | Particle Size Data-Volume % With Diamter Greater Than 1 μm [2, 4]: 3 Volume % | Particle Size Data-Volume % With Diamter Greater Than 2 μm [2, 4]: 3 Volume % | Particle Size Data-Volume % With Diamter Greater Than 5 μm [2, 4]: 3 Volume % | Particle Size Data-Volume % With Diamter Greater Than 10 μm [2, 4]: 3 Volume % | d50 [2, 4]: 0.31 μm | Particle Size Data-Volume % With Diamter Greater Than 0.2 μm [2, 5]: 51 Volume % | Particle Size Data-Volume % With Diamter Greater Than 0.4 μm [2, 5]: 3 Volume % | Particle Size Data-Volume % With Diamter Greater Than 1 μm [2, 5]: 3 Volume % | Particle Size Data-Volume % With Diamter Greater Than 2 μm [2, 5]: 2 Volume % | Particle Size Data-Volume % With Diamter Greater Than 5 μm [2, 5]: 1 Volume % | Particle Size Data-Volume % With Diamter Greater Than 10 μm [2, 5]: 0 Volume % | d50 [2, 5]: 0.21 μm | d50 [2, 6]: less than 1 micron | d95 [2, 6]: less than 1 micron | d50 [2, 7]: less than 0.3 microns | d95 [2, 7]: less than 0.4 microns | d90 (0.4-0.5 mm zirconium silicate, at 60 minutes): about 2 microns | Particle Size Data-Volume % With Diamter Greater Than 2 μm [8]: 95 Volume % | Particle Size Data-Volume % With Diamter Greater Than 5 μm [8]: 48 Volume % | Particle Size Data-Volume % With Diamter Greater Than 10 μm [8]: 10 Volume % | d50 [8]: 4.9 μm | Particle Size Data-Volume % With Diamter Greater Than 1 μm [9]: 68 Volume % | Particle Size Data-Volume % With Diamter Greater Than 2 μm [9]: 21 Volume % | Particle Size Data-Volume % With Diamter Greater Than 5 μm [9]: 4 Volume % | Particle Size Data-Volume % With Diamter Greater Than 10 μm [9]: 0 Volume % | d50 [9]: 1.3 μm | Particle Size Data-Volume % With Diamter Greater Than 1 μm [10]: 50 Volume % | Particle Size Data-Volume % With Diamter Greater Than 2 μm [10]: 11 Volume % | Particle Size Data-Volume % With Diamter Greater Than 5 μm [10]: 2 Volume % | Particle Size Data-Volume % With Diamter Greater Than 10 μm [10]: 4 Volume % | d50 [10]: 1.0 μm | Particle Size Data-Volume % With Diamter Greater Than 1 μm [11]: 94 Volume % | Particle Size Data-Volume % With Diamter Greater Than 2 μm [11]: 22 Volume % | Particle Size Data-Volume % With Diamter Greater Than 5 μm [11]: 23 Volume % | Particle Size Data-Volume % With Diamter Greater Than 10 μm [11]: 18 Volume % | d50 [11]: 1.4 μm | Particle Size Data-Volume % With Diamter Greater Than 2 μm [12]: 4 Volume % | Particle Size Data-Volume % With Diamter Greater Than 5 μm [12]: 0 Volume % | Particle Size Data-Volume % With Diamter Greater Than 10 μm [12]: 2 Volume % | Particle Size Data-Volume % With Diamter Greater Than 1 μm [13]: 58 Volume % | Particle Size Data-Volume % With Diamter Greater Than 2 μm [13]: 6 Volume % | Particle Size Data-Volume % With Diamter Greater Than 5 μm [13]: 2 Volume % | Particle Size Data-Volume % With Diamter Greater Than 10 μm [13]: 0 Volume % | Particle Size Data-Volume % With Diamter Greater Than 1 μm [14]: 53 Volume % | Particle Size Data-Volume % With Diamter Greater Than 2 μm [14]: 7 Volume % | Particle Size Data-Volume % With Diamter Greater Than 5 μm [14]: 2 Volume % | Particle Size Data-Volume % With Diamter Greater Than 10 μm [14]: 2 Volume % | Particle Size Data-Volume % With Diamter Greater Than 1 μm [15]: 54 Volume % | Particle Size Data-Volume % With Diamter Greater Than 2 μm [15]: 8 Volume % | Particle Size Data-Volume % With Diamter Greater Than 5 μm [15]: 0 Volume % | Particle Size Data-Volume % With Diamter Greater Than 10 μm [15]: 2 Volume % | Particle Size Data-Volume % With Diamter Greater Than 1 μm [16]: 56 Volume % | Particle Size Data-Volume % With Diamter Greater Than 2 μm [16]: 21 Volume % | Particle Size Data-Volume % With Diamter Greater Than 5 μm [16]: 8 Volume % | Particle Size Data-Volume % With Diamter Greater Than 10 μm [16]: 12 Volume % | d50 (0.4-0.5 mm zirconium silicate, within about one hour): ~1 micron | starting particle size (before wet milling): 3-4 microns
